Measured values from US10858316B2, “Small molecule inhibitors of the MCL-1 oncoprotein and uses thereof” (University of Maryland, Baltimore, priority 2015, dated 2020).
Values joined by “and” are separate entries in the source; they are usually repeats but may differ in a detail not shown here. Equal entries are not always repeated. Where two headings read alike, the source gives them in different places.

How the values were obtained:
Bcl-xL = Bcl-xL (Homo sapiens (Human), UniProt Q07817); assay: Fluorescence polarization competition assay, Bcl-xL; assay type: binding; conditions: for Ki: Ki from IC50 by Nikolovska-Coleska equation, NA = no activity, read-out: Bcl-xL Ki; for Bcl-xL Exp ΔG: ΔG from experimental Ki
Sequence of Bcl-xL (Q07817 whole entry): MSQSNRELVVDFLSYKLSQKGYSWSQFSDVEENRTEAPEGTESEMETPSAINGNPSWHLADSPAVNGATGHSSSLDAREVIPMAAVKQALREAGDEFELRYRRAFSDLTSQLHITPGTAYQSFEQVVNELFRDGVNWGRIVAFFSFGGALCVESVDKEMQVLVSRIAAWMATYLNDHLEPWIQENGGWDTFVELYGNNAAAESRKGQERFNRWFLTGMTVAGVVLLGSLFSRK
Method: Fluorescence polarization experiments were conducted using a BMG PHERAstar FS multimode microplate reader equipped with two PMTs for simultaneous measurements of the perpendicular and parallel fluorescence emission. The assays were performed in black polypropylene 384-well microplate (Costar) with a final volume of 20 microliter. […] Regression analysis was carried out using Origin (OriginLab, Northampton, Mass.) to fit the data to the Hill equation (1) to determine the initial binding affinity (KD) and the IC50 in the FPCA. For the fluorescence polarization competition titrations, an equation derived by Nikolovska-Coleska et al. was used to calculate the Ki from the IC50 data.

HL-60 cell line = assay: Cell viability of HL-60 cell line after treating with inhibitors for 24 hrs; assay type: cell-based, human
Source text: The moderate cell grow inhibition ability for the two carboxylic acid ester prodrugs 20 and 21 could be attributed to the enzymatic hydrolysis that generated a free acid molecule (13ag) to function as an Mcl-1 inhibitor in the cells.

Mcl-1 [1] = molecular target: Mcl-1 (Homo sapiens (Human), UniProt Q07820); assay: Fluorescence polarization competition assay (FPCA), Mcl-1 / FITC-Bak BH3 peptide; assay type: binding; conditions: for Ki: read-out: Mcl-1 Ki; for Mcl-1 Exp ΔG: ΔG=−RTlnKi from experimental Ki
Sequence of Mcl-1 (Homo sapiens (Human), UniProt Q07820) (Q07820 172-327): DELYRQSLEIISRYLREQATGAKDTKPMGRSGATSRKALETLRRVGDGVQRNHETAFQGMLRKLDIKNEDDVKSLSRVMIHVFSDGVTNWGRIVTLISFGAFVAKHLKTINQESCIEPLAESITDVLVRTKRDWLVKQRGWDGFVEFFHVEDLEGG
In short: (§1)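 Purified Mcl-1 (affinity tag cleaved, size-exclusion polished) competed against FITC-labeled Bak-BH3 peptide, read by fluorescence polarization. IC50 from Hill-equation fit; Ki derived from IC50 by the Nikolovska-Coleska equation.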

Mcl-1 [2] = assay: as above; assay type: binding, human; conditions: for Exp. ΔG diff.: between Mcl-1 and Bcl-xL, positive favors Mcl-1; for Selectivity, Ki (Bcl-xL) divided by Ki (Mcl-1): Mcl-1 over Bcl-xL
In short: as §1

[3] = read-out: HL-60 IC50 0.5% FBS, 0.5% FBS
[4] = read-out: HL-60 IC50 10% FBS, 10% FBS
[5] = FPCA with FITC-Bak, Ki from IC50 by Nikolovska-Coleska equation

SMILES | Ki (Bcl-xL) [µM] | IC50 (HL-60 cell line; [3]) [µM] | IC50 (HL-60 cell line; [4]) [µM] | Ki (Mcl-1 [1]; [5]) | Ki (Mcl-1 [1]; FPCA) [µM] | Bcl-xL Exp ΔG (Bcl-xL) [kcal/mol] | Mcl-1 Exp ΔG (Mcl-1 [1]) [kcal/mol] | Exp. ΔG diff. (Mcl-1 [2]) [kcal/mol] | Selectivity, Ki (Bcl-xL) divided by Ki (Mcl-1) (Mcl-1 [2])
Cc1cc(Oc2ccc(S(=O)(=O)N(Cc3ccccc3)c3ccc(C(=O)NS(=O)(=O)c4ccc(NCC5CCOCC5)c([N+](=O)[O-])c4)c(O)c3)cc2)cc(C)c1Cl [LC-5-131 31] | 1.61 ± 0.176 | 9.96 | > 120 | 0.8 ± 0.07 µM | 0.8 | – | – | – | –
COC(=O)c1ccc(N(CC(C)C)S(=O)(=O)c2ccc(Oc3ccccc3)cc2)cc1O [LC-4-131 20] | – | 68.1 | 76.4 | > 500 µM | – | – | – | – | –
Cc1cc(CCCN(Cc2ccccc2)c2ccc(C(=O)O)c(O)c2)cc(C)c1Cl [LC-5-188 35] | 2.98 ± 0.406 | 7.36 | 88 | 1.45 µM | – | – | – | – | –
CC(C)CN(c1ccc(C(=O)O)c(O)c1)S(=O)(=O)c1ccc(Oc2ccccc2)cc1 [LC-4-099 13ag] | 18 ± 4.6 | 18.5 | > 120 | 5.77 µM and 5.8 µM | – | – | – | – | –
Cc1cc(Oc2ccc(N(C3CCCC3)S(=O)(=O)c3cc(C(=O)O)c(O)c4ccccc34)cc2)cc(C)c1Cl [3bk; JY-5-379] | – | – | – | – | – | -8.91 | -10.20 | 1.29 | –
O=C(O)c1cc(S(=O)(=O)Nc2ccc(Br)cc2Br)c2ccccc2c1O [3o; SF-5-290] | – | – | – | – | – | -7.68 | -8.69 | 1.01 | –
O=C(O)c1cc(S(=O)(=O)NCc2ccc(Cl)cc2)c2ccccc2c1O [Compound 3f, 4-(N-(4-Chlorobenzyl)sulfamoyl)-1-hydroxy-2-naphthoic Acid] | 338 ± 203 | – | – | 21 ± 3.9 µM | – | – | – | – | 16
O=C(O)c1cc(S(=O)(=O)Nc2ccc(Oc3ccc(Cl)cc3Cl)cc2)c2ccccc2c1O [Compound 3bg, 4-(N-(4-(2,4-Dichlorophenoxy)phenyl)sulfamoyl)-1-hydroxy-2-naphthoic Acid] | 0.19 ± 0.02 | – | – | 0.079 µM | – | – | – | – | 2.4
Cc1ccc(Oc2ccc(NS(=O)(=O)c3cc(C(=O)O)c(O)c4ccccc34)cc2)cc1 [3bc; SF-5-301] | – | – | – | – | – | -8.28 | -8.83 | 0.55 | –
COc1ccc(NS(=O)(=O)c2cc(C(=O)O)c(O)c3ccccc23)cc1 [3z; MEL-3-018] | – | – | – | – | – | -5.65 | -6.71 | 1.06 | –
Cc1cc(Oc2ccc(N(CC(C)C)S(=O)(=O)c3cc(C(=O)O)c(O)c4ccccc34)cc2)cc(C)c1Cl [3bj; JY-5-377] | – | – | – | – | – | -9.23 | -9.68 | 0.45 | –
Cc1cc(Oc2ccc(N(CC(C)C)S(=O)(=O)c3cc(C(=O)O)c(O)c4ccccc34)cc2)cc(C)c1Cl [Compound 3bj, 4-(N-(4-(4-Chloro-3,5-dimethylphenoxy)phenyl)-N-isobutylsulfamoyl)-1-hydroxy-2-naphthoic Acid] | 0.17 ± 0.06 | – | – | 0.08 ± 0.019 µM | – | – | – | – | 2.1
O=C(O)c1cc(S(=O)(=O)NCc2ccc(Cl)cc2)c2ccccc2c1O [3f; SF-5-264] | – | – | – | – | – | -4.73 | -6.38 | 1.65 | –
O=C(O)c1cc(S(=O)(=O)Nc2ccc(Oc3cccc4ccccc34)cc2)c2ccccc2c1O [Compound 3bd, 1-Hydroxy-4-(N-(4-(naphthalen-1-yloxy)phenyl)sulfamoyl)-2-naphthoic Acid] | 0.22 ± 0.06 | – | – | 0.082 µM | – | – | – | – | 3.7
O=C(O)c1cc(S(=O)(=O)Nc2ccc([N+](=O)[O-])cc2)c2ccccc2c1O [Compound 3ac, 1-Hydroxy-4-(N-(4-nitrophenyl)sulfamoyl)-2-naphthoic Acid] | 23.3 ± 2.5 | – | – | 4.49 ± 1.2 µM | – | – | – | – | 5.2
CC(=O)OCOC(=O)c1ccc(N(CC(C)C)S(=O)(=O)c2ccc(Oc3ccccc3)cc2)cc1O [LC-4-141 21] | – | 46.4 | > 120 | – | – | – | – | – | –
